{"source": "paper PMC7558102", "about": "“Hybrid Multimodal Imaging Synthons for Chemoselective and Efficient Biomolecule Modification with Chelator and Near-Infrared Fluorescent Cyanine Dye” (Pharmaceuticals, 2020)", "key": {"[1]": {"assay": "logD of the unconjugated NIR cyanine dyes 1–3", "format": "physicochemical", "conditions": "1-octanol/water; unconjugated dye"}, "[2]": {"assay": "photophysical properties (absorbance and emission measurements)", "format": "physicochemical", "conditions": "for log ε: at λmax(abs); for λmax(em): excitation wavelength λex = 650 nm", "experimental": "Finally, the photophysical properties were determined for dyes, MIS and their conjugates. It could be shown that the photophysical properties remained largely unaltered, including absorption coefficients and emission characteristics (Table 1). […] The only change in photophysical properties we qualitatively observed was an increase in the quantum yields of the dye conjugates compared to their unconjugated leads 1–3, an effect that was described before and can be attributed to the conjugation of sterically demanding groups (such as the PESIN homodimers used here), resulting in a decrease in aggregation of the dye molecules and thus a reduced fluorescence quenching. γ-Counting was performed using a 2480 Wizard gamma counter system from Perkin Elmer. A Cary 100 Bio system (Varian) was used to record the UV/Vis-Spectra together with 4 mL PMMA cuvettes from Sigma-Aldrich. Furthermore, for absorbance and emission measurements, a Tecan Infinite M200 Microplate reader together with a Nunc Micro-Well 96 solid plate from ThermoFisher was used."}, "[3]": {"format": "physicochemical", "conditions": "pH 7.4", "experimental": "(§1) The mixtures were vigorously shaken for 5 min on a vibrating plate. After subsequent centrifugation at 13,000 rpm for 5 min, 125 µL was taken from each phase and measured in a γ-counter. The logD values were calculated from three or four independent experiments, each performed in triplicate. For 18, the logD was determined by semipreparative HPLC. For this purpose, a solution of 18 (10 µL, c = 5 × 10^−4 mol/L) in water was added to a mixture of 1 mL 1-octanol and 990 µL phosphate buffered solution (0.05 M, pH 7.4) and vigorously shaken for 5 min. After centrifugation, the phases were separated and both phases were analyzed by semipreparative HPLC and the peaks of the UV signals at 214 nm were integrated. The logD was determined by three separate measurements, each experiment performed in triplicate."}, "[4]": {"assay": "water/1-octanol partition coefficients (logD) of 68Ga-labeled compounds, γ-counting", "format": "physicochemical", "conditions": "pH 7.4", "experimental": "as §1"}}, "note": "Like-named read-outs stand apart in the source and are kept apart here.", "data": [{"smiles": "CC1(C)C(/C=C/C2=C(c3ccc(C(=O)O)cc3)C(=C/C=C3/N(CCCCS(=O)(=O)[O-])c4ccc5ccccc5c4C3(C)C)/CCC2)=[N+](CCCCS(=O)(=O)O)c2ccc3ccccc3c21", "note": "[Compound 1]", "values": [{"measurement": "logD", "setting": "[1]", "result": "-1.03 ± 0.11"}, {"measurement": "Stokes Shift", "setting": "[2]", "result": 11, "unit": "nm"}, {"measurement": "λmax(abs)", "setting": "[2]", "result": 804, "unit": "nm"}, {"measurement": "log ε", "setting": "[2]", "result": 5.00, "unit": "M^−1 cm^−1"}, {"measurement": "λmax(em)", "setting": "[2]", "result": 815, "unit": "nm"}]}, {"smiles": "CC1(C)C(/C=C/C2=C(c3ccccc3)C(=C/C=C3/N(CCCCS(=O)(=O)[O-])c4ccc(S(=O)(=O)O)cc4C3(C)C)/CCC2)=[N+](CCCCS(=O)(=O)O)c2ccc(C(=O)O)cc21", "note": "[Compound 2]", "values": [{"measurement": "logD", "setting": "[1]", "result": "-4 ± 0.11"}, {"measurement": "Stokes Shift", "setting": "[2]", "result": 20, "unit": "nm"}, {"measurement": "λmax(abs)", "setting": "[2]", "result": 761, "unit": "nm"}, {"measurement": "log ε", "setting": "[2]", "result": 5.44, "unit": "M^−1 cm^−1"}, {"measurement": "λmax(em)", "setting": "[2]", "result": 781, "unit": "nm"}]}, {"smiles": "CC1(C)C(/C=C/C2=C(c3ccc(CCC(=O)O)cc3)C(=C/C=C3/N(CCCCS(=O)(=O)[O-])c4ccc(S(=O)(=O)O)cc4C3(C)C)/CCC2)=[N+](CCCCS(=O)(=O)O)c2ccc(S(=O)(=O)O)cc21", "note": "[Compound 3]", "values": [{"measurement": "logD", "setting": "[1]", "result": "-3.95 ± 0.15"}, {"measurement": "Stokes Shift", "setting": "[2]", "result": 19, "unit": "nm"}, {"measurement": "λmax(abs)", "setting": "[2]", "result": 756, "unit": "nm"}, {"measurement": "log ε", "setting": "[2]", "result": 5.32, "unit": "M^−1 cm^−1"}, {"measurement": "λmax(em)", "setting": "[2]", "result": 775, "unit": "nm"}]}, {"smiles": "CSCC[C@H](NC(=O)[C@H](CC(C)C)NC(=O)[C@H](Cc1c[nH]cn1)NC(=O)CNC(=O)[C@@H](NC(=O)[C@H](C)NC(=O)[C@H](Cc1c[nH]c2ccccc12)NC(=O)[C@H](CCC(N)=O)NC(=O)CCOCCOCCOCCOCCNC(=O)CON=Cc1ccc(C(=O)NCCCN(CCCNC(=O)c2ccc(C=NOCC(=O)NCCOCCOCCOCCOCCC(=O)N[C@@H](CCC(N)=O)C(=O)N[C@@H](Cc3c[nH]c4ccccc34)C(=O)N[C@@H](C)C(=O)N[C@H](C(=O)NCC(=O)N[C@@H](Cc3c[nH]cn3)C(=O)N[C@@H](CC(C)C)C(=O)N[C@@H](CCSC)C(N)=O)C(C)C)cc2)CC(=O)N[C@H](CSC2CC(=O)N(CCN3C(=O)CC(SC)C3=O)C2=O)C(=O)NCCOCCOCC(N)=O)cc1)C(C)C)C(N)=O", "note": "(stereo partly drawn) [Compound 18]", "values": [{"measurement": "logD", "setting": "[3]", "result": "-0.99 ± 0.03"}]}, {"smiles": "CSCC[C@H](NC(=O)[C@H](CC(C)C)NC(=O)[C@H](Cc1c[nH]cn1)NC(=O)CNC(=O)[C@@H](NC(=O)[C@H](C)NC(=O)[C@H](Cc1c[nH]c2ccccc12)NC(=O)[C@H](CCC(N)=O)NC(=O)CCOCCOCCOCCOCCNC(=O)CON=Cc1ccc(C(=O)NCCCN(CCCNC(=O)c2ccc(C=NOCC(=O)NCCOCCOCCOCCOCCC(=O)N[C@@H](CCC(N)=O)C(=O)N[C@@H](Cc3c[nH]c4ccccc34)C(=O)N[C@@H](C)C(=O)N[C@H](C(=O)NCC(=O)N[C@@H](Cc3c[nH]cn3)C(=O)N[C@@H](CC(C)C)C(=O)N[C@@H](CCSC)C(N)=O)C(C)C)cc2)CC(=O)N[C@H](CSC2CC(=O)N(CCN3C(=O)CC(SC[C@H](NC(=O)[C@H](CCCCNC(=O)CCc4ccc(C5=C(C=CC6=[N+](CCCCS(=O)(=O)[O-])c7ccc(S(=O)(=O)O)cc7C6(C)C)CCCC5=CC=C5N(CCCCS(=O)(=O)O)c6ccc(S(=O)(=O)O)cc6C5(C)C)cc4)NC(=O)CC[C@H](C(=O)O)N4CCN(CC(=O)O)CCN(CC(=O)O)CC4)C(N)=O)C3=O)C2=O)C(=O)NCCOCCOCC(N)=O)cc1)C(C)C)C(N)=O", "note": "(stereo partly drawn) [[68Ga]Ga-16, metal not drawn]", "values": [{"measurement": "logD", "setting": "[4]", "result": "-2.55 ± 0.13"}]}, {"smiles": "CSCC[C@H](NC(=O)[C@H](CC(C)C)NC(=O)[C@H](Cc1c[nH]cn1)NC(=O)CNC(=O)[C@@H](NC(=O)[C@H](C)NC(=O)[C@H](Cc1c[nH]c2ccccc12)NC(=O)[C@H](CCC(N)=O)NC(=O)CCOCCOCCOCCOCCNC(=O)CON=Cc1ccc(C(=O)NCCCN(CCCNC(=O)c2ccc(C=NOCC(=O)NCCOCCOCCOCCOCCC(=O)N[C@@H](CCC(N)=O)C(=O)N[C@@H](Cc3c[nH]c4ccccc34)C(=O)N[C@@H](C)C(=O)N[C@H](C(=O)NCC(=O)N[C@@H](Cc3c[nH]cn3)C(=O)N[C@@H](CC(C)C)C(=O)N[C@@H](CCSC)C(N)=O)C(C)C)cc2)CC(=O)N[C@H](CSC2CC(=O)N(CCN3C(=O)CC(SC[C@H](NC(=O)CNC(=O)CC[C@H](C(=O)O)N4CCN(CC(=O)O)CCN(CC(=O)O)CC4)C(N)=O)C3=O)C2=O)C(=O)NCCOCCOCC(N)=O)cc1)C(C)C)C(N)=O", "note": "(stereo partly drawn) [[68Ga]Ga-17, metal not drawn]", "values": [{"measurement": "logD", "setting": "[4]", "result": "-2.38 ± 0.03"}]}]}
